Data from US11242407B2, “High-affinity anti-MERTK antibodies and uses thereof” (Rgenix, Inc., priority 2019, dated 2022).

What was measured:
[1] = system: MERTK-expressing M1 macrophages; test: Macrophage viability assay, M1; settings: 4 days of treatment in differentiating medium
Experimental: Macrophage Viability Assay
(§1) Peripheral blood mononuclear cells (PBMCs) were prepared from buffy coats of healthy donors by Histopaque-1077 (Sigma, 10771) density gradient centrifugation at 250×g at room temperature for 30 min. The intermediate layer containing PBMCs was collected and cells were washed with PBS/2 mM EDTA three times. Human monocytes were isolated from PBMCs by magnetic separation using human Classical Monocyte Isolation Kit (Miltenyi, 130-117-337) according to the manufacturer's instructions. Eighty thousand monocytes per well were cultured on 96-well plates in 150 μL PBMC medium (RPMI 1640 medium (Gibco, 11875093) containing 10% human AB serum, 10% FBS, L-glutamine, penicillin, and streptomycin) at 37° C. with 5% CO2. Monocytes were treated with GM-CSF (20 ng/mL; Biolegend, 766102) or M-CSF (50 ng/mL; Biolegend, 574804) for 8 days to differentiate to M1 or M2 macrophages, respectively. […] On day 4, 100 μL of CellTiter-Glo 2.0 Cell Viability Assay reagent (Promega, G9241) was added to each well, incubated for 10 mins and the luminescence signal was detected with a GloMax Discover Microplate Reader (Promega). The mean relative luminometer units (RLU) from duplicate wells were plotted with GraphPad Prism.

[2] = system: MERTK-expressing M2 macrophages; test: Macrophage viability assay, M2; settings: 4 days of treatment in differentiating medium
Experimental: Macrophage Viability Assay
as §1

## CCCCNc1ncc2c(-c3ccc(S(=O)(=O)N4CCOCC4)cc3)nn(C3CCC(O)CC3)c2n1 (centres unmarked) [UNC1062, reference compound]
[1]
  viability of M1 macrophages (CellTiter-Glo 2.0): neither z10 nor z10-MMAE nor z10-SN-38 nor the MERTK inhibitor UNC1062 affect the viability
[2]
  viability of M2 macrophages (CellTiter-Glo 2.0): neither z10 nor z10-MMAE nor z10-SN-38 nor the MERTK inhibitor UNC1062 affect the viability
